This note sets out measurements from patent US20230339890A1, “AMINO ALCOHOL COMPOUNDS AND USES THEREOF” (Kineta, Inc., priority 2020, published 2023).

By IC50 is commonly meant the concentration needed to halve the response being measured.

Some results are limits rather than exact numbers.

Chain of Recombinant human CYP51A1 (lanosterol-14a-demethylase) (Q16850 whole entry): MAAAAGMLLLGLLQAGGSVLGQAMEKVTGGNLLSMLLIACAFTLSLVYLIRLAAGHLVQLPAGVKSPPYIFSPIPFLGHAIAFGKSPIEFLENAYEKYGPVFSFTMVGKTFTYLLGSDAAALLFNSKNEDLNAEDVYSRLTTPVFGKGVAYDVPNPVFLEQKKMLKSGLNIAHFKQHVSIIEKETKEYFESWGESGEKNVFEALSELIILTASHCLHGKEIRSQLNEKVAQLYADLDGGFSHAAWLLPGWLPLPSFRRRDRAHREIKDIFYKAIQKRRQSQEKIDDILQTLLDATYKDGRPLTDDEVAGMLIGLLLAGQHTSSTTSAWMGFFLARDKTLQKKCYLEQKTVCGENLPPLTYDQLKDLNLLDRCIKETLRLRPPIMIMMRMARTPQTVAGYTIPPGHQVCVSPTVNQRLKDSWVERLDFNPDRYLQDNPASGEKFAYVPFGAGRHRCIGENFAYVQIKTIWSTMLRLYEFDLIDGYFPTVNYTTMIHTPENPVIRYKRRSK

For this experiment, the target named is Recombinant human CYP51A1 (lanosterol-14a-demethylase) (Homo sapiens (Human), UniProt Q16850). Kind of experiment: Inhibition of CYP51A1, fluorescent substrate BOMCC. The format is biochemical. To be noted: recombinant human CYP51A1 coexpressed with CYP reductase in bacterial membranes, 8-point concentration-response, read-out: CYP51 IC50. The source says:
Method: Recombinant human CYP51A1 (lanosterol-14a-demethylase) enzyme was coexpressed with CYP reductase in bacterial membranes and the fluorescent substrate BOMCC (a nonnatural substrate that causes increases in fluorescence upon CYP51A1-dependent demethylation) was used to obtain 8-point dose concentration-response curves for each compound.
For `CCCN(C[C@@H](O)c1cccnc1)C(=O)Cc1ccc2cc(Cl)sc2c1` [compound 67, 2-(2-chlorobenzothiophen-6-yl)-N-[(2S)-2-hydroxy-2-(3-pyridyl)ethyl]-N-propyl-acetamide], the IC50 was ≤ 100 nM.
As to `O=C(Cc1ccc(Cl)c(Cl)c1)N(C[C@@H](O)c1cccnc1)C1CCC1` [compound 71, N-cyclobutyl-2-(3,4-dichlorophenyl)-N-[(2S)-2-hydroxy-2-(3-pyridyl)ethyl]acetamide], the IC50 was ≤ 100 nM.
As to `CC(C)N(C[C@@H](O)c1cccnc1)C(=O)Cc1ccc(C(F)(F)F)nc1` [compound 72, (S)-N-(2-hydroxy-2-(pyridin-3-yl)ethyl)-N-isopropyl-2-(6-(trifluoromethyl)pyridin-3-yl)acetamide], the IC50 is 100 to 1000 nM.
With `O=C(Cc1ccc(C(F)(F)F)nc1)N(CC1COC1)C[C@@H](O)c1cccnc1` [compound 73, N-[(2S)-2-hydroxy-2-(3-pyridyl)ethyl]-N-(oxetan-3-ylmethyl)-2-[6-(trifluoromethyl)-3-pyridyl]acetamide] the figure was 100 to 1000 nM.
Take `O=C(Cc1ccc(C(F)(F)F)nc1)N(C[C@@H](O)c1cccnc1)C1CCC1` [compound 74, N-cyclobutyl-N-[(2S)-2-hydroxy-2-(3-pyridyl)ethyl]-2-[6-(trifluoromethyl)-3-pyridyl]acetamide]: the IC50 is ≤ 100 nM.
Turning to `COC(=O)N(CCc1ccc(C(F)(F)F)nc1)C[C@@H](O)c1cccnc1` [compound 75, Methyl N-[(2S)-2-hydroxy-2-(3-pyridyl)ethyl]-N-[2-[6-(trifluoromethyl)-3-pyridyl]ethyl]carba mate], the IC50 is > 1000 nM.
With `CC1(CN(C[C@@H](O)c2cccnc2)C(=O)Cc2ccc(C(F)(F)F)nc2)CC1` [compound 76, N-[(2S)-2-hydroxy-2-(3-pyridyl)ethyl]-N-[(1-methylcyclopropyl)methyl]-2-[6-(trifluoromethyl)-3-pyridyl]acetamide] the figure was ≤ 100 nM; with `N#Cc1ccc(CC(=O)N(C[C@@H](O)c2cccnc2)C2CCC2)cc1Cl` [compound 77, 2-(3-chloro-4-cyano-phenyl)-N-cyclobutyl-N-[(2S)-2-hydroxy-2-(3-pyridyl)ethyl]acetamide], ≤ 100 nM.
On to `O=C(Cc1ccc(C(F)(F)F)nc1)N(C[C@@H](O)c1cccnc1)C1COC1` [compound 78, N-[(2S)-2-hydroxy-2-(3-pyridyl)ethyl]-N-(oxetan-3-yl)-2-[6-(trifluoromethyl)-3-pyridyl]acetamide], for which the IC50 is 100 to 1000 nM.
As to `O=C(Cc1ccc(C(F)(F)F)nc1)N(CC1CCOCC1)C[C@@H](O)c1cccnc1` [compound 79, N-[(2S)-2-hydroxy-2-(3-pyridyl)ethyl]-N-(tetrahydropyran-4-ylmethyl)-2-[6-(trifluoromethyl)-3-pyridyl]acetamide], the IC50 was > 1000 nM.
The figure for `N#Cc1ccc(CC(=O)N(CC2COC2)C[C@@H](O)c2cccnc2)cc1Cl` [compound 80, 2-(3-chloro-4-cyano-phenyl)-N-[(2S)-2-hydroxy-2-(3-pyridyl)ethyl]-N-(oxetan-3-ylmethyl)acetamide] is 100 to 1000 nM; for `O=C(Cc1ccc(C(F)(F)F)nc1)N(CC1CCNCC1)C[C@@H](O)c1cccnc1` [compound 81, N-[(2S)-2-hydroxy-2-(3-pyridyl)ethyl]-N-(4-piperidylmethyl)-2-[6-(trifluoromethyl)-3-pyridyl]acetamide] it is > 1000 nM.
The figure for `COC(=O)N(CCc1ccc2ccccc2c1)CC(O)c1cccnc1` (stereo not drawn) [compound 82, Methyl N-[2-hydroxy-2-(3-pyridyl)ethyl]-N-[2-(2-naphthyl)ethyl]carba mate] is 100 to 1000 nM; for `COC(=O)N(CCc1ccc(Cl)c(Cl)c1)CC(O)c1cccnc1` (stereo not drawn) [compound 83, Methyl N-[2-(3,4-dichlorophenyl)ethyl] -N-[2-hydroxy-2-(3-pyridyl)ethyl]carbam ate] it is 100 to 1000 nM; for `O=C(Cc1ccc(C(F)(F)F)nc1)N(CC(O)c1cnccn1)C1CCC1` (stereo not drawn) [compound 85] it is 100 to 1000 nM.
Turning to `O=C(Cc1ccc(Cl)c(Cl)c1)N(C[C@@H](O)c1cccnc1)C1CC1` [compound 86, N-cyclopropyl-2-(3,4-dichlorophenyl)-N-[(2S)-2-hydroxy-2-(3-pyridyl)ethyl]acetamide], the IC50 fell in the range of 100 to 1000 nM.
`O=C(Cc1ccc(C(F)(F)F)nc1)N(CC1CCC1)CC(O)c1cccnn1` (stereo not drawn) [compound 87]: the IC50 fell in the range of 100 to 1000 nM.
As to `Cc1ccncc1C(O)CN(CC1COC1)C(=O)Cc1ccc(C(F)(F)F)nc1` (stereo not drawn) [compound 89, N-[2-hydroxy-2-(4-methyl-3-pyridyl)ethyl] -N-(oxetan-3-ylmethyl)-2-[6-(trifluoromethyl)-3-pyridyl]acetamide], the IC50 is > 1000 nM.
For `CC(C)c1ccncc1C(O)CN(CC1COC1)C(=O)Cc1ccc(C(F)(F)F)nc1` (stereo not drawn) [compound 90, N-[2-hydroxy-2-(4-isopropyl-3-pyridyl)ethyl]-N-(oxetan-3-ylmethyl)-2-[6-(trifluoromethyl)-3-pyridyl]acetamide], the IC50 is ≤ 100 nM.
As to `CCC(=O)N(C[C@@H](O)c1cccnc1)C1Cc2cnc(C(F)(F)F)cc2C1` (stereo partly drawn) [compound 93, N-[(2S)-2-hydroxy-2-(3-pyridyl)ethyl]-N-[3-(trifluoromethyl)-6,7-dihydro-5H-cyclopenta[c]pyridin-6-yl]propanamide], the IC50 was > 1000 nM.
As to `CC(C)N(C[C@@H](O)c1cccnc1)C(=O)Cc1cnc(C(F)(F)F)nc1` [compound 94, N-[(2S)-2-hydroxy-2-(3-pyridyl)ethyl]-N-isopropyl-2-[2-(trifluoromethyl)pyrimidin-5-yl]acetamide], the IC50 fell in the range of 100 to 1000 nM.
For `CCCN(CC(O)c1cccnc1)C(=O)Cc1ccc(F)c(F)c1` (stereo not drawn) [compound 95, 2-(3,4-difluorophenyl)-N-(2-hydroxy-2-(pyridin-3-yl)ethyl)-N-propylacetamide], the IC50 fell in the range of 100 to 1000 nM.
With `CCCN(CC(O)c1cnccn1)C(=O)Cc1ccc(Cl)c(Cl)c1` (stereo not drawn) [compound 96] the figure was 100 to 1000 nM; with `CCCN(CC(O)c1cccnn1)C(=O)Cc1ccc(Cl)c(Cl)c1` (stereo not drawn) [compound 97], ≤ 100 nM; with `CCCN(C[C@@H](O)c1cccnc1)C(=O)C1CCc2cc(Cl)c(Cl)cc2C1` (stereo partly drawn) [compound 98, 6,7-dichloro-N-[(2S)-2-hydroxy-2-(3-pyridyl)ethyl]-N-propyl-tetralin-2-carboxamide], ≤ 100 nM.
Turning to `CCCN(C[C@@H](O)c1cccnc1)C(=O)Cc1ccc(C)c(C)c1` [compound 99, 2-(3,4-dimethylphenyl)-N-[(2S)-2-hydroxy-2-(3-pyridyl)ethyl]-N-propyl-acetamide], the IC50 was in the range of 100 to 1000 nM.
On to `CCCN(C[C@@H](O)c1cccnc1)C(=O)Cc1ccc(C#N)c(Cl)c1` [compound 100, 2-(3-chloro-4-cyano-phenyl)-N-[(2S)-2-hydroxy-2-(3-pyridyl)ethyl]-N-propyl-acetamide], for which the IC50 is ≤ 100 nM.
With `CCCN(C[C@@H](O)c1cccnc1)C(=O)c1nc2cc(Cl)c(Cl)cc2[nH]1` [compound 101, 5,6-dichloro-N-[(2S)-2-hydroxy-2-(3-pyridyl)ethyl]-N-propyl-1 H-benzimidazole-2-carboxamide] the figure was > 1000 nM; with `CCCN(CC(O)c1ccc(OC)nc1)C(=O)Cc1ccc(Cl)c(Cl)c1` (stereo not drawn) [compound 102, 2-(3,4-dichlorophenyl)-N-[2-hydroxy-2-(6-methoxy-3-pyridyl)ethyl]-N-propyl-acetamide], > 1000 nM; with `CCCN(CC(O)c1cncc(Br)c1)C(=O)Cc1ccc(Cl)c(Cl)c1` (stereo not drawn) [compound 103, N-[2-(5-bromo-3-pyridyl)-2-hydroxyethyl]-2-(3,4-dichlorophenyl)-N-propyl-acetamide], > 1000 nM.
The figure for `CCCN(C[C@@H](O)c1cccnc1)C(=O)Cc1cncnc1` [compound 104, N-[(2S)-2-hydroxy-2-(3-pyridyl)ethyl]-N-propyl-2-pyrimidin-5-yl-acetamide] is > 1000 nM; for `CCCN(C[C@@H](O)c1cccnc1)C(=O)Cc1ccc(C(F)(F)F)c(F)c1` [compound 105, 2-[3-fluoro-4-(trifluoromethyl)phenyl]-N-[(2S)-2-hydroxy-2-(3-pyridyl)ethyl]-N-propyl-acetamide] it is ≤ 100 nM.
With `CCCN(C[C@@H](O)c1cccnc1)C(=O)Cc1ccc(C(F)(F)F)cn1` [compound 106, N-[(2S)-2-hydroxy-2-(3-pyridyl)ethyl]-N-propyl-2-[5-(trifluoromethyl)-2-pyridyl]acetamide] the figure was 100 to 1000 nM.
`CCCN(C[C@@H](O)c1cccnc1)C(=O)N1Cc2cc(Cl)c(Cl)cc2C1` [compound 107, 5,6-dichloro-N-[(2S)-2-hydroxy-2-(3-pyridyl)ethyl]-N-propyl-isoindoline-2-carboxamide]: the IC50 was ≤ 100 nM.
With `CCCN(C[C@@H](O)c1cccnc1)C(=O)Cc1ccc(F)cn1` [compound 108, 2-(5-fluoro-2-pyridyl)-N-[(2S)-2-hydroxy-2-(3-pyridyl)ethyl]-N-propyl-acetamide], the IC50 is > 1000 nM.
Take `CCCN(CC(O)c1cnccc1OC)C(=O)Cc1ccc(Cl)c(Cl)c1` (stereo not drawn) [compound 109, 2-(3,4-dichlorophenyl)-N-[2-hydroxy-2-(4-methoxy-3-pyridyl)ethyl]-N-propyl-acetamide]: the IC50 was ≤ 100 nM.
Take `CCCN(C[C@@H](O)c1cccnc1)C(=O)C1Cc2cc(F)c(F)cc2C1` [compound 110, 5,6-difluoro-N-[(2S)-2-hydroxy-2-(3-pyridyl)ethyl]-N-propyl-indane-2-carboxamide]: the IC50 lay in the range of 100 to 1000 nM.
In the case of `CCCN(CC(O)c1cncc(C#N)c1)C(=O)Cc1ccc(Cl)c(Cl)c1` (stereo not drawn) [compound 111, N-[2-(5-cyano-3-pyridyl)-2-hydroxyethyl]-2-(3,4-dichlorophenyl)-N-propyl-acetamide], the IC50 is > 1000 nM.
Take `CCCN(CC(O)c1cncc(F)c1)C(=O)Cc1ccc(C(F)(F)F)nc1` (stereo not drawn) [compound 112, N-[2-(5-fluoro-3-pyridyl)-2-hydroxyethyl]-N-propyl-2-[6-(trifluoromethyl)-3-pyridyl]acetamide]: the IC50 is 100 to 1000 nM.
